US6864086B2, “Nitric oxide-scavenging system for culturing oocytes, embryos, or other cells” (Board of Supervisors of Louisiana State University and …, priority 1998, dated 2005)
Values joined by “and” are separate entries in the source; they are usually repeats but may differ in a detail not shown here. Equal entries are not always repeated.

Test system: bovine IVF-oocytes
Assay: Example 8: Hb (1 μg/ml) in mBECM co-culture, oocytes collected in different months, pre-hatching development
Type: cell-based
Parameters: key to Least square mean ± SE of embryos developed to 8-cell / Least square mean ± SE of embryos developed to 16-cell / Least square mean ± SE of embryos developed to Morula / Least square mean ± SE of embryos developed to Blastocyst / Least square mean ± SE of embryos developed to 2-cell: mean of per-embryo scores: 1 = developed to stage, 0 = not developed
Protocol: The basic medium used for maturation of oocytes was tissue culture medium (TCM)-199 with Earle's salts, buffered with 25 mM HEPES (Gibco BRL, Grand Island, N.Y.) and supplemented with 10% (v/v) heat-inactivated fetal bovine serum (FBS; Hyclone Laboratories, Logan, Utah), 1 μg/ml estradiol-17β (NOBL Laboratories, Sioux Center, Iowa), 3 μg/ml bovine FSH (NOBL Laboratories), 6 μg/ml bovine LH (NOBL Laboratories), and 25 μg/ml gentamycin (Sigma Chemical Co., St. Louis, Mo.). The basic medium used for treatment of spermatozoa and fertilization of oocytes was a modified Tyrode's medium (J. Parrish et al., Capacitation of bovine sperm by heparin. Biol. Reprod. 38:1171-1180 (1988)), supplemented with 0.25 mM sodium pyruvate (Gibco BRL), 6 mg/ml fatty acid (FA)-free BSA (No. A-6003, Sigma), 15 μg/ml calcium heparin from porcine intestinal mucosa (183 USP/mg; H-8398, Sigma), and 25 μg/ml gentamycin. Modified bovine embryo culture medium (mBECM) containing 10 μM β-mercaptoethanol was used for culture of embryos, as described in J. Lim et al., “Roles of growth factors in the development of bovine embryos fertilized in vitro and cultured singly in a defined medium,” Reprod. Fertil. Dev., 8:1199-1205 (1996). mBECM supplemented with 10% (v/v) FBS was used for co-culturing inseminated oocytes with CGC. Osmolarity of the medium was maintained within the range of 265-290 mOsm.
All cumulus-oocyte complexes (COC) were collected in Madison, Wis. (BOMED, Inc.) and were shipped in 2 ml of maturation medium in a battery powered incubator via overnight express mail service. Oocytes matured during transit and arrived within 24 h after exposure to maturation medium, pre-equilibrated at 39° C. in 5% CO2 in air. At 22 to 24 h after exposure to the medium, the COCs were inseminated in vitro as described in J. Lim et al., “Intracytoplasmic glutathione concentration and the role of β-mercaptoethanol in preimplantation development of bovine embryos,” Theriogenology, 46:429-439 (1996). At 18 h post-insemination, COCs were cultured in groups (28-40 embryos) in a 4-well multidish (Nunc, Roskilde, Denmark) containing 0.8-ml of mBECM. Embryos were dislodged from CGC at 36 to 48 h post-insemination.
In Example 8, bovine follicular oocytes were collected from November 1996 to May 1997, and matured and fertilized in culture. (Oocytes collected during summer and early fall were not used in this study, to avoid interference from environmental heat stress on in vitro survival of embryos.) IVF embryos were collected at 18 h post-insemination and cultured in mBECM supplemented with FBS (10%, v/v), to which 0 or 1 μg/ml Hb (from bovine, mainly methemoglobin, H-2500, Sigma Co.) was added. Development of embryos to the 2-cell, 8-cell, 16-cell, morula, and blastocyst stages was monitored 48, 60, 120, 144 and 192 h post-insemination, respectively. As a supplemental experiment, some blastocysts in each treatment (20 or 28) were randomly collected, and the cell number of the blastocysts was counted by use of Hoechst stain 33342 and a fluorescent microscope (Diaphod, Nikkon, Tokyo, Japan). This experiment used 1675 embryos in 25 replicates, with IVF embryos randomly allotted among treatments.
Embryos developed to the 2-cell, 8-cell, 16-cell, morula, and blastocyst stages at the pertinent observation times were individually scored ‘1’ (developed). Embryos that had not developed to these stages at the same times were scored ‘0’ (non-developed). Sums of the scores at each stage of development were evaluated by analysis of variance using a general linear model (PROC-GLM) in the SAS statistical programming package (1991). In Example 8, the combined effects of Hb addition and month of oocyte collection were first examined in a 2×7 factorial arrangement. Overall differences in embryonic development in Hb-free and Hb-containing culture systems were further evaluated. […] Differences were regarded as statistically significant where P values were less than 0.05.

In the case of hemoglobin [Hb], the “Least square mean ± SE of embryos developed to 2-cell” value (“Least square mean ± SE … to 2-cell” for short) (April) is reported as 0.70 ± 0.03, the “Least square mean ± SE of embryos developed to 8-cell” value (“Least square mean ± SE … to 8-cell” for short) (April) is reported as 0.48 ± 0.03 and the “Least square mean ± SE of embryos developed to 16-cell” value (“Least square mean ± SE … to 16-cell” for short) (April) is reported as 0.39 ± 0.03. The “Least square mean ± SE of embryos developed to Blastocyst” value (from here on “Least square mean ± SE … to Blastocyst”) (April) was 0.25 ± 0.03, the “Least square mean ± SE of embryos developed to Morula” value (“Least square mean ± SE … to Morula” for short) (April) was 0.32 ± 0.03 and the “Least square mean ± SE … to 2-cell” value (December) was 0.79 ± 0.05. The “Least square mean ± SE … to 8-cell” value (December) was 0.59 ± 0.05, the “Least square mean ± SE … to 16-cell” value (December) was 0.53 ± 0.05 and the “Least square mean ± SE … to Blastocyst” value (December) was 0.36 ± 0.05. The “Least square mean ± SE … to Morula” value (December) was 0.41 ± 0.05, the “Least square mean ± SE … to 2-cell” value (February) was 0.77 ± 0.04 and the “Least square mean ± SE … to 8-cell” value (February) was 0.53 ± 0.04. The “Least square mean ± SE … to 16-cell” value (February) was 0.44 ± 0.04, the “Least square mean ± SE … to Blastocyst” value (February) was 0.35 ± 0.04 and the “Least square mean ± SE … to Morula” value (February) was 0.40 ± 0.04. The “Least square mean ± SE … to 2-cell” value (January) was 0.70 ± 0.04, the “Least square mean ± SE … to 8-cell” value (January) was 0.45 ± 0.04 and the “Least square mean ± SE … to 16-cell” value (January) was 0.42 ± 0.04. The “Least square mean ± SE … to Blastocyst” value (January) was 0.28 ± 0.04, the “Least square mean ± SE … to Morula” value (January) was 0.32 ± 0.04 and the “Least square mean ± SE … to 2-cell” value (March) was 0.58 ± 0.05. The “Least square mean ± SE … to 8-cell” value (March) was 0.40 ± 0.06, the “Least square mean ± SE … to 16-cell” value (March) was 0.31 ± 0.06 and the “Least square mean ± SE … to Blastocyst” value (March) was 0.20 ± 0.05. For the same substance, the “Least square mean ± SE … to Morula” value (March) was 0.23 ± 0.06, the “Least square mean ± SE … to 2-cell” value (May) was 0.70 ± 0.05 and the “Least square mean ± SE … to 8-cell” value (May) was 0.60 ± 0.05. For the same substance, the “Least square mean ± SE … to 16-cell” value (May) was 0.49 ± 0.05, the “Least square mean ± SE … to Blastocyst” value (May) was 0.40 ± 0.05 and the “Least square mean ± SE … to Morula” value (May) was 0.44 ± 0.05. The “Least square mean ± SE … to 2-cell” value (November) was 0.89 ± 0.07, the “Least square mean ± SE … to 8-cell” value (November) was 0.71 ± 0.08 and the “Least square mean ± SE … to 16-cell” value (November) was 0.60 ± 0.08. For the same substance, the “Least square mean ± SE … to Blastocyst” value (November) was 0.34 ± 0.07, the “Least square mean ± SE … to Morula” value (November) was 0.57 ± 0.08 and the “formation of blastocysts (least square mean), range over months” value (November-May, control 0.17-0.32) was 0.20-0.4. For the same substance, the “formation of morulae (least square mean), range over months” value (November-May, control 0.2-0.37) was 0.23-0.57, the “Number of embryos developed to 2-cell” value (all months overall, 831 embryos cultured, 48 h) was 601 and the “Number of embryos developed to 8-cell” value (all months overall, 831 embryos cultured, 60 h) was 427. The “Number of embryos developed to 16-cell” value (all months overall, 831 embryos cultured, 120 h) was 358, the “Number of embryos developed to Morula” value (all months overall, 831 embryos cultured, 144 h) was 300 and the “Number of embryos developed to Blastocyst” value (all months overall, 831 embryos cultured, 192 h) was 251. For the same substance, the “Least square mean ± SE … to 2-cell” value (all months overall, 48 h) was 0.73 ± 0.02, the “Least square mean ± SE … to 8-cell” value (all months overall, 60 h) was 0.54 and 0.54 ± 0.02 and the “Least square mean ± SE … to 16-cell” value (all months overall, 120 h) was 0.45 and 0.45 ± 0.02. The “Least square mean ± SE … to Morula” value (all months overall, 144 h) was 0.39 and 0.39 ± 0.02, the “Least square mean ± SE … to Blastocyst” value (all months overall, 192 h) was 0.31 and 0.31±0.02 and the “effect on development to the 2-cell stage” value (all months overall, P>0.73) was “no significant effect”.
